Measured values as given in patent publication US20260053811A1, “METHODS OF TREATING HYPERTENSION IN OBESE SUBJECTS” (Mineralys Therapeutics, Inc., priority 2022, published 2026).

Tested on: hypertensive subjects
Test: Seated automated office blood pressure (AOBP) in randomized, placebo-controlled, dose-ranging study
Assay type: in vivo, human
Set-up: Difference from placebo in change in blood pressure: unit not given here
Experimental: A randomized, double-blinded, placebo-controlled, dose-ranging, multicenter study was conducted to evaluate the effect of orally administered Compound A HBr on blood pressure for the treatment of hypertension in male and female subjects ≥18 years of age.
The study consists of two parts. For enrollment into Part 1 of the study, a subject's value of plasma renin activity (PRA) must be ≤1 ng/mL/h based on morning measurement. If the value of PRA >1 ng/mL/h based on morning measurement, then subjects may be eligible to enter Part 2 of the study.
For Part 1, 163 enrolled subjects ≥18 years of age were randomized into 6 equal treatment groups (1:1:1:1:1:1) to 12.5 mg BID, 25 mg BID, 12.5 mg QD, 50 mg QD, 100 mg QD, or placebo. After a review of interim clinical data, the 2 lowest dose levels (12.5 mg QD and 12.5 mg BID) were stopped for future randomization due to a lack of consistent meaningful reduction of blood pressure, but the patients randomized to that point remained in the study through completion. Thus, after the review of interim clinical data, subjects were randomized into 4 equal treatment groups (1:1:1:1) to 25 mg BID, 50 mg QD, 100 mg QD, or placebo.
For Part 2, 36 enrolled subjects ≥18 years of age were randomized (5:1) to either 100 mg QD Compound A HBr or placebo such that the Compound A HBr treatment group consisted of approximately 30 subjects and the placebo treatment group will consist of approximately 6 subjects.
Subjects orally administered the assigned study drug (Compound A HBr or placebo) according to the assigned dosing regimen for 8 weeks beginning on Study Day 1. All subjects in Part 1 (regardless of dosing group) received BID dosing to preserve the integrity of the blind; active drug is administered as the morning dose for all QD dose groups. Subjects returned to the research facility or were seen by the clinical investigator or approved home health care professional at the end of Study Weeks 1, 2, 3, 4, 5, 6, 7, and 8 (±2 days) for protocol-defined efficacy and safety assessments and procedures, assessment of adverse events (AEs), and confirmation of compliance with study drug usage. Subjects also completed a telephone visit and blood pressure (BP) check at home approximately 3 days post last dose of study drug. Subjects attended up to 14 full clinic visits, including a pre-Screening visit, a Screening/start of Placebo Run-in visit, a second visit during Placebo Run-in, a clinic visit to initiate the ABPM procedure, a Randomization visit, 8 weekly visits during double-blind treatment, and an end-of-study visit scheduled 4 weeks after the last study treatment for final efficacy and safety assessments.
An automated oscillometric sphygmomanometer device was used to measure the subjects' systolic and diastolic blood pressure in office after approximately 5 minutes of rest in the seated position.
The primary endpoint is the change in office-measured (mean of last 2 of 5 unattended measurements using an automated oscillometric sphygmomanometer device after approximately 5 minutes of rest in the seated position) systolic blood pressure (SBP) from baseline to the end of Study Week 8.
Secondary endpoints of this study were: • (a) Change in 24-hour ambulatory blood pressure monitoring (ABPM) parameters (systolic and diastolic) from baseline to the end of Study Week 7. • (b) Change in office-measured SBP from baseline to the end of Study Weeks 1, 2, 3, 4, 5, 6, and 7. • (c) Change in office-measured diastolic blood pressure (DBP) from baseline to the end of Study Weeks 1, 2, 3, 4, 5, 6, 7, and 8. • (d) Proportion of subjects who achieve office-measured BP of ≤130/80 mm Hg by the end of Study Week 8.

[1] = 12.5 mg BID, Week 1, Part 1, FAS
[2] = 12.5 mg BID, Week 2, Part 1, FAS
[3] = 12.5 mg BID, Week 3, Part 1, FAS
[4] = 12.5 mg BID, Week 4, Part 1, FAS
[5] = 12.5 mg BID, Week 5, Part 1, FAS
[6] = 12.5 mg BID, Week 6, Part 1, FAS
[7] = 12.5 mg BID, Week 7, Part 1, FAS
[8] = 12.5 mg BID, Week 8, Part 1, FAS

For `CC(=O)N[C@H]1CC[C@H](NC(=O)CN2CCN(c3nncc(-c4ccc(C)cc4)n3)CC2)CC1` [Compound A HBr], the “Difference from placebo in change in blood pressure” value (from here on “Difference from placebo in change”) (12.5 mg BID, BMI 25-30) was −3.5, the “Difference from placebo in change” value (12.5 mg BID, BMI >30) was −10.1 and the “Difference from placebo in change” value (12.5 mg BID, Thiazide No) was −1.4. For the same compound, the “Difference from placebo in change” value (12.5 mg BID, Thiazide Yes) was −10.6, the “Seated AOBP DBP change from baseline (CFB), Mean (SD)” value (“Seated AOBP DBP change … (SD)” below) [1] was −5.95 (6.17) mmHg and the “Seated AOBP DBP, Mean (SD)” value [1] was 75.59 (8.32) mmHg. The “Seated AOBP SBP change from baseline (CFB), Mean (SD)” value (“Seated AOBP SBP change … (SD)” below) [1] was −8.89 (11.51) mmHg, the “Seated AOBP SBP, Mean (SD)” value [1] was 135.68 (14.48) mmHg and the “Seated AOBP DBP change … (SD)” value [2] was −7.32 (9.14) mmHg. The “Seated AOBP DBP, Mean (SD)” value [2] was 74.23 (10.15) mmHg, the “Seated AOBP SBP change … (SD)” value [2] was −11.98 (13.02) mmHg and the “Seated AOBP SBP, Mean (SD)” value [2] was 132.59 (14.70) mmHg. The “Seated AOBP DBP change … (SD)” value [3] was −0.93 (7.51) mmHg, the “Seated AOBP DBP, Mean (SD)” value [3] was 79.95 (9.17) mmHg and the “Seated AOBP SBP change … (SD)” value [3] was −5.80 (9.60) mmHg. For the same compound, the “Seated AOBP SBP, Mean (SD)” value [3] was 137.70 (15.37) mmHg, the “LSM Δ with Placebo, seated AOBP DBP (MMRM)” value [4] was −4.48 mmHg and the “Modelled (MMRM) LSM (SEM) change from baseline, seated AOBP DBP” value [4] was −5.02 (1.67) mmHg. The “Seated AOBP DBP change … (SD)” value [4] was −4.18 (10.21) mmHg, the “Seated AOBP DBP, Mean (SD)” value [4] was 75.79 (10.69) mmHg and the “Seated AOBP SBP change … (SD)” value [4] was −10.71 (12.27) mmHg. The “Seated AOBP SBP, Mean (SD)” value [4] was 132.95 (15.79) mmHg, the “Seated AOBP DBP change … (SD)” value [5] was −7.00 (7.81) mmHg and the “Seated AOBP DBP, Mean (SD)” value [5] was 73.50 (10.13) mmHg. For the same compound, the “Seated AOBP SBP change … (SD)” value [5] was −12.53 (13.34) mmHg, the “Seated AOBP SBP, Mean (SD)” value [5] was 131.44 (13.13) mmHg and the “Seated AOBP DBP change … (SD)” value [6] was −6.47 (6.39) mmHg. The “Seated AOBP DBP, Mean (SD)” value [6] was 74.95 (10.29) mmHg, the “Seated AOBP SBP change … (SD)” value [6] was −14.00 (14.80) mmHg and the “Seated AOBP SBP, Mean (SD)” value [6] was 129.79 (15.24) mmHg. For the same compound, the “Seated AOBP DBP change … (SD)” value [7] was −5.76 (7.62) mmHg, the “Seated AOBP DBP, Mean (SD)” value [7] was 74.21 (9.64) mmHg and the “Seated AOBP SBP change … (SD)” value [7] was −11.76 (13.06) mmHg. For the same compound, the “Seated AOBP SBP, Mean (SD)” value [7] was 131.89 (11.93) mmHg, the “LSM Δ from Placebo, change from baseline in seated AOBP SBP (MMRM)” value [8] was −7.2 mmHg and the “LSM Δ with Placebo, seated AOBP DBP (MMRM)” value [8] was −3.84 mmHg. The “Modelled (MMRM) LSM (SEM) change from baseline, seated AOBP DBP” value [8] was −5.47 (2.02) mmHg, the “Modelled (MMRM) LSM (SEM) change from baseline, seated AOBP SBP” value [8] was −11.30 (3.15) mmHg and the “Seated AOBP DBP change … (SD)” value [8] was −5.84 (8.78) mmHg. The “Seated AOBP DBP, Mean (SD)” value [8] was 75.21 (10.07) mmHg, the “Seated AOBP SBP change … (SD)” value [8] was −13.79 (17.70) mmHg and the “Seated AOBP SBP, Mean (SD)” value [8] was 131.89 (12.93) mmHg. For the same compound, the “Subjects with seated AOBP SBP/DBP ≤130/80 mmHg: No” value [8] was 15 (68.2) n (%), the “Subjects with seated AOBP SBP/DBP ≤130/80 mmHg: Yes” value [8] was 7 (31.8) n (%) and the “Difference from placebo in change” value (12.5 mg QD, BMI 25-30) was “−.14”.
